Our source for the IC50 and EC50 values is patent US20250206738A1, “WRN INHIBITORS” (Nimbus Wadjet, Inc., priority 2023, published 2025).

For assay [1], the target named is T1, human Werner helicase (WRN, Uniprot Q14191, amino acids 517-1235 with L1074F point mutation; WRN-BV08) (Homo sapiens, UniProt Q14191, L1074F).
T1 construct: Uniprot Q14191, amino acids 517-1235 with L1074F point mutation; 8xHis (C, cleaved yes); TEV cleavage site (ENLYFQG) (C, cleaved yes); made in house; host or cells: Sf9 insect cells (baculovirus, pFastBac)
T1 sequence (Q14191 with tags, fused parts or gaps L1074F): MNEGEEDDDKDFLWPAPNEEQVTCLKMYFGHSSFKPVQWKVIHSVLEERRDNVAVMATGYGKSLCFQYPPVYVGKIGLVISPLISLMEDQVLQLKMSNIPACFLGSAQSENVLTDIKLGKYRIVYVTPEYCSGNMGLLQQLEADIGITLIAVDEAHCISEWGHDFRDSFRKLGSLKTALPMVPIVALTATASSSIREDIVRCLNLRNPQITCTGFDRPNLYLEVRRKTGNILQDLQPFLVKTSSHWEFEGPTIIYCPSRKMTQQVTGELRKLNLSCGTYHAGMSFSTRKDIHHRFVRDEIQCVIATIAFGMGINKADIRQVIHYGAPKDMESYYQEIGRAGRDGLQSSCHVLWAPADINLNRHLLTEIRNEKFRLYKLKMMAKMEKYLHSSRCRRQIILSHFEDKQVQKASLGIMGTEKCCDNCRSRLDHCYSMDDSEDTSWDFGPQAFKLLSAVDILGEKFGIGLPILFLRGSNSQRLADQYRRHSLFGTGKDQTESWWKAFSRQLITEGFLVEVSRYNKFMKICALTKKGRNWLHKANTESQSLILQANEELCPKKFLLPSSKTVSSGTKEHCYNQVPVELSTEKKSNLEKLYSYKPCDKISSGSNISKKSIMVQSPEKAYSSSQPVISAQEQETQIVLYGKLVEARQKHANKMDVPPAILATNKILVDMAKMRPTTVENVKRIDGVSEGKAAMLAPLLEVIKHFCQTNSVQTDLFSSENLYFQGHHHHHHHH
Nature of the assay: WRN (BV08) ADP-Glo assay. The format is biochemical. The note with it: WRN-BV08 (aa 517-1235, L1074F); read-out: ADP-Glo_hWRN_IC50. The text has this:
Example 2: WRN (BV08) ADP-Glo Assay Protocol
Bovine skin gelatin (BSG), dimethyl sulfoxide (DMSO), Pluronic F-127 and tris(2-carboxyethyl)phosphine hydrochloride solution (TCEP) were purchased from Sigma-Aldrich (St. Louis, MO) at the highest level of purity possible. Bicine buffer solution was purchased from Alfa Aesar (Tewksbury, MA) and compound NSC-617145 was purchased from Tocris (Minneapolis, MN). DNA duplex was synthesized at BGI (Shenzhen, China) and was composed of strand 1 with the sequence 5′-[…]-3′ (SEQ ID NO.: 1) and strand 2 with the sequence 5′-[…]-3′ (SEQ ID NO.: 2). DNA strands were annealed by heating to 95° C. for 5 minutes followed by slow cooling to room temperature. Compounds in 100% DMSO ([…]) were spotted into a 384-well white polystyrene Optiplate-384 (Perkin Elmer; Waltham, MA) assay plate using a LabCyte Echo 550 (Agilent; Santa Clara, CA). DMSO ([…]) was added to columns 12, rows A-H and column 24, rows I-P for the maximum signal control. Compound NSC-617145 ([…]) was added to columns 12, rows I-P and 24, rows A-H for the minimum signal control (100% inhibition). Compounds/DMSO were preincubated for 15 minutes at 25° C. with […] 2×WRN (BV08), prepared as described below, in assay buffer containing 20 mM Bicine (pH=7.5), 1 mM MgCl2, 10 mM KCl, 0.1% Pluronic F-127, 0.005% BSG, 1 mM TCEP. The reaction was initiated by the addition of […] 2× substrate mixture in assay buffer and incubated for 60 minutes at 25° C. The final concentrations of the assay components were 0.15 nM WRN, […], and 0.1 nM DNA duplex. The final DMSO concentration was 1% and the reference compound concentration (NSC-617145) used for the minimal signal control was […]. The reaction was stopped by the addition of the ADP-Glo Kit components (Promega; Madison, WI) as directed and the relative luminescence units (RLU) were read on an Envision 2104 (Perkin Elmer; Waltham, MA).
% Inhibition Calculation:
Where RLU=relative luminescence units, sample=signal in sample well, and MIN and MAX are the respective minimum and maximum signal controls.
Four-Parameter IC50 Fit Equation:
Where top and bottom are normally allowed to float but may be fixed at 100 or 0 respectively in a 3-parameter fit. Y is the % inhibition and X is the compound concentration.
Molecular Biology and virus production. The DNA encoding human Werner helicase (Uniprot Q14191, amino acids 517-1235 with L1074F point mutation) was generated with codon-optimization for […] expression and subcloned into the pFastBac vector with a TEV cleavable 8×His tag (SEQ ID NO: 5) (WRN—BV08). The baculovirus from the expression plasmid WRN—BV08 was generated from transfection and amplification following the manufacturer's instructions.
Sf9 cells grown in SF900II media were infected with 1:200 WRN—BV08 P2 virus and incubated for protein expression for 72 h at 27° C. The WRN protein was purified using the following protocol. The cell pellets were thawed and resuspended in buffer A (50 mM Tris, pH 7.5, 500 mM NaCl, 1 mM TCEP, 10% Glycerol) supplemented with 0.5% CHAPS, 1 mM PMSF, 1 μg/ml Leupeptin, 1 μg/ml Pepstatin, and the Pierce Universal Nuclease and cocktail tablet. Cleared lysates were loaded onto a Ni Sepharose™ excel column and washed with buffer A and bound protein was eluted with buffer A supplemented with 300 mM imidazole. The eluted protein was dialyzed against buffer A and digested by His-tagged TEV (1:5 ratio) overnight at 4° C. ZnCl2 was added into the sample at final 15 μM before loading onto a second Ni Sepharose™ excel column. Untagged WRN protein was eluted from the column with buffer A supplemented with 20 mM imidazole, dialyzed overnight into buffer B (50 mM Tris, pH 7.5, 1 mM TCEP, 10% Glycerol) supplemented with 150 mM NaCl and loaded onto a Heparin column. Proteins were eluted with a step gradient of buffer B supplemented with 150 mM, 200 mM, 300 mM and 500 mM NaCl. […]
On the technique in general: In ADP-Glo the light output rises with the ADP produced.

Assay [2] concerns p21 induction in HCT 116 cells. Nature of the assay: p21 induction in cells (In-Cell Western, p21/GAPDH ratio). The note with it: 24 h compound incubation, read-out: P21_EC50. The assay is classed as cell-based. On the procedure: Example 3: Method for Determining Effect on p21 Induction in Cells
The colon carcinoma cell line HCT 116 was obtained from ATCC and cultured in growth medium consisting of Mccoy's 5A Medium (Gibco 16600108) supplemented with 10% FBS (Transgene FS201-02) and 100 units/mL penicillin-streptomycin (Gibco 15140122) and maintained at 37° C. under 5% CO2. On the day of seeding, 2,000 cells in 30 μL of culture media were plated per well to Poly-D-Lysine 384 Well Black Clear Plates (Biocoat 356663) and incubated overnight at 37° C. under 5% CO2. The following day, compounds were serially diluted in DMSO for a total of 11 test concentrations. The typical starting concentration of compounds was 10 μM with 2-fold dilutions. Next, 150 nL of diluted compound was added in duplicate to the assay plate, using an Echo 655 (Labcyte). The plate was centrifuged at 500 RPM for 1 min and then incubated at 37° C. under 5% CO2 for 24 h. After 24h, medium was removed, and cells were fixed by adding 40 μL of 4% paraformaldehyde solution to each well and incubated for 20 min at room temperature. The plate was then washed 4 times with 100 μL per well of wash buffer (PBS with 0.1% Tween-20) using a microplate washer. Next, 30 μL of ice-cold methanol was added to each well and the plate was incubated at −20° C. for 10 min. The plate was washed 4 times with 100 μL per well of wash buffer by a microplate washer, then 30 μL per well of blocking buffer (Intercept PBS blocking buffer (LI-COR 927-70001) with 0.05% Tween-20) was added and the plate was incubated at room temperature with shaking for 2h. Next, to each test well, 20 μL of primary antibody solution (p21 Waf1/CIP (12D1) RabbitmAb (Cell Signaling Technologies 2947) diluted 1:1000 and GAPDH (D4C6R) Mouse mAb (Cell Signaling Technologies 97166) diluted 1:2000 in blocking buffer) was added and the plate was placed at 4° C., overnight. The following day, the plate was washed 5 times with 100 μL per well of wash buffer using a microplate washer for 5 min. 20 μL per well of secondary antibody (IRDye 680CW Goat anti-Mouse IgG (H+L) (LI-COR 926-68070) diluted 1: 2000 in Blocking Buffer and IRDye 800CW Goat anti-Rabbit IgG (H+L) (LI-COR 926-32211) diluted 1: 2000 in Blocking Buffer) was then added and the plate was stored for 2h in the dark at room temperature with shaking. The plate was then washed 4 times with 100 μL per well of wash buffer again using a microplate washer. Finally, the p21 signal and the GAPDH signal were quantified using a LI-COR Odyssey CLx Imager machine reading at 800 nm and 700 nm, respectively. Each plate contained DMSO control (low control) and an internal reference WRN inhibitor (high control) respectively. For quantitation, the 800 nm/700 nm ratio was calculated for each well to give fold p21 induction and then percent activation for each compound well was calculated as follows (100×(ratio cpd well−ratio low control)/(ratio high control−ratio low control)). EC50 values for each compound were generated after non-linear regression curve fitting using commercially available software.

Read-outs that look alike come from different tables or passages of the source.

Regarding `CCc1c(N2CCN(C(=O)c3ncnc(C)c3O)CC2)c(=O)n2nc(-c3ccnc(OC)c3)nc2n1CC(=O)NC12CC(C(F)(F)F)(C1)C2` [I-4, 2-(5-ethyl-6-(4-(5-hydroxy-6-methylpyrimidine-4-carbonyl)piperazin-1-yl)-2-(2-methoxypyridin-4-yl)-7-oxo-[1,2,4]triazolo[1,5-a]pyrimidin-4(7H)-yl)-N-(3-(trifluoromethyl)bicyclo[1.1.1]pentan-1-yl)acetamide], the IC50 in assay [1] fell in the range of 5 to 50 nM. Also, the EC50 in assay [2] (Homo sapiens, HCT-116, 24 h) lay in the range of 2000 to 5000 nM. With `CCc1c(N2CCN(C(=O)c3ncnc(C)c3O)[C@H]3CC[C@@H]32)c(=O)c2nn(C3=CCOC(C)C3)nc2n1CC(=O)NC12CC(C3CC3)(C1)C2` (single isomer, unassigned) [I-170], the IC50 in assay [1] was in the range of 5 to 50 nM. Moreover, in assay [2], the EC50 was at most 500 nM. For `CCc1c(C2=CCN(C(=O)c3ncnc(C)c3O)CC2C)c(=O)c2nn(-c3ccnc(OC)c3)nc2n1CC(=O)NC12CC(C(C)C)(C1)C2` (single isomer, unassigned) [I-98] the same measures were 5 to 50 nM and 500 to 2000 nM. Consider `CCc1c(N2CCN(C(=O)c3c(O)ccc4ncoc34)CC2)c(=O)n2nc(N(C)C)nc2n1CC(=O)NC12CC(C3CCC3)(C1)C2` [I-203, N-(3-cyclobutylbicyclo[1.1.1]pentan-1-yl)-2-(2-(dimethylamino)-5-ethyl-6-(4-(6-hydroxybenzo[d]oxazole-7-carbonyl)piperazin-1-yl)-7-oxo-[1,2,4]triazolo[1,5-a]pyrimidin-4(7H)-yl)acetamide], for which the IC50 in assay [1] was in the range of 5 to 50 nM. Moreover, the EC50 in assay [2] (Homo sapiens, HCT-116, 24 h) is at most 500 nM. The corresponding values for `CCc1c(N2CCN(C(=O)c3c(O)ccc4ncoc34)CC2)c(=O)n2nc(-c3ccnc(OC)c3)nc2n1CC(=O)NC12CC(C3COC3)(C1)C2` [I-46, 2-(5-ethyl-6-(4-(6-hydroxybenzo[d]oxazole-7-carbonyl)piperazin-1-yl)-2-(2-methoxypyridin-4-yl)-7-oxo-[1,2,4]triazolo[1,5-a]pyrimidin-4(7H)-yl)-N-(3-(oxetan-3-yl)bicyclo[1.1.1]pentan-1-yl)acetamide] are 100 to 500 nM and over 5000 nM. The corresponding values for `CCc1c(N2CCN(C(=O)c3ncnc(C)c3O)CC2)c(=O)n2nc(-c3ccnc(OC)c3)nc2n1CC(=O)N[C@H]1CC[C@H](C(F)(F)F)CC1` [I-242, 2-(5-ethyl-6-(4-(5-hydroxy-6-methylpyrimidine-4-carbonyl)piperazin-1-yl)-2-(2-methoxypyridin-4-yl)-7-oxo-[1,2,4]triazolo[1,5-a]pyrimidin-4(7H)-yl)-N-((1r,4r)-4-(trifluoromethyl)cyclohexyl)acetamide] are 100 to 500 nM and over 5000 nM. The corresponding values for `CCc1c(N2CCN(C(=O)c3c(O)ccc4ncoc34)CC2)c(=O)n2nc(-c3ccnc(OC)c3)nc2n1CC(=O)NC12CC(C(F)(F)C(F)(F)F)(C1)C2` [I-38, 2-(5-ethyl-6-(4-(6-hydroxybenzo[d]oxazole-7-carbonyl)piperazin-1-yl)-2-(2-methoxypyridin-4-yl)-7-oxo-[1,2,4]triazolo[1,5-a]pyrimidin-4(7H)-yl)-N-(3-(perfluoroethyl)bicyclo[1.1.1]pentan-1-yl)acetamide] are 5 to 50 nM and at most 500 nM. With `CCc1c(N2CCN(C(=O)c3c(O)ccc4ncoc34)CC2)c(=O)n2nc(C3=CCOCC3)nc2n1CC(=O)NC12CC(C3CC3)(C1)C2` [I-29, N-(3-cyclopropylbicyclo[1.1.1]pentan-1-yl)-2-(2-(3,6-dihydro-2H-pyran-4-yl)-5-ethyl-6-(4-(6-hydroxybenzo[d]oxazole-7-carbonyl)piperazin-1-yl)-7-oxo-[1,2,4]triazolo[1,5-a]pyrimidin-4(7H)-yl)acetamide], in assay [1], the IC50 was 5 to 50 nM. Besides, the EC50 in assay [2] (Homo sapiens, HCT-116, 24 h) was at most 500 nM. Take `CCc1c(N2CCN(C(=O)c3c(OC)ncc(C4CC4)c3O)CC2)c(=O)c2nn(-c3ccnc(OC)c3)nc2n1CC(=O)NC12CC(C(C)C)(C1)C2` [I-83, 2-{6-[4-(5-cyclopropyl-4-hydroxy-2-methoxypyridine-3-carbonyl)piperazin-1-yl]-5-ethyl-2-(2-methoxypyridin-4-yl)-7-oxo-2H,4H,7H-[1,2,3]triazolo[4,5-b]pyridin-4-yl}-N-[3-(propan-2-yl)bicyclo[1.1.1]pentan-1-yl]acetamide]: the EC50 in assay [2] (Homo sapiens, HCT-116, 24 h) was at most 500 nM. On to `CCc1c(N2CCN(C(=O)c3c(F)cnc(OC)c3O)[C@H]3CC[C@@H]32)c(=O)c2nn(C3=CCOCC3)nc2n1CC(=O)NC12CC(C3CC3)(C1)C2` [I-172, N-{3-cyclopropylbicyclo[1.1.1]pentan-1-yl}-2-[2-(3,6-dihydro-2H-pyran-4-yl)-5-ethyl-6-[(1S,6S)-5-(5-fluoro-3-hydroxy-2-methoxypyridine-4-carbonyl)-2,5-diazabicyclo[4.2.0]octan-2-yl]-7-oxo-2H,4H,7H-[1,2,3]triazolo[4,5-b]pyridin-4-yl]acetamide], for which the IC50 in assay [1] was 5 to 50 nM.
